# Test results as given in patent US8008021B2, “N-terminal truncation of cardiac troponin subunits and their roles in cardiovascular disease” (Evanston Northwestern Healthcare, priority 2006, dated 2011).
# Target: T1, myofibril associated μ-calpain (Mus musculus, UniProt O35350)
# T1 construct: To test whether endogenous calpain in the cardiac muscle contributes to TnT NH2-terminal modification; from tissue
# T1 sequence (O35350 1-713): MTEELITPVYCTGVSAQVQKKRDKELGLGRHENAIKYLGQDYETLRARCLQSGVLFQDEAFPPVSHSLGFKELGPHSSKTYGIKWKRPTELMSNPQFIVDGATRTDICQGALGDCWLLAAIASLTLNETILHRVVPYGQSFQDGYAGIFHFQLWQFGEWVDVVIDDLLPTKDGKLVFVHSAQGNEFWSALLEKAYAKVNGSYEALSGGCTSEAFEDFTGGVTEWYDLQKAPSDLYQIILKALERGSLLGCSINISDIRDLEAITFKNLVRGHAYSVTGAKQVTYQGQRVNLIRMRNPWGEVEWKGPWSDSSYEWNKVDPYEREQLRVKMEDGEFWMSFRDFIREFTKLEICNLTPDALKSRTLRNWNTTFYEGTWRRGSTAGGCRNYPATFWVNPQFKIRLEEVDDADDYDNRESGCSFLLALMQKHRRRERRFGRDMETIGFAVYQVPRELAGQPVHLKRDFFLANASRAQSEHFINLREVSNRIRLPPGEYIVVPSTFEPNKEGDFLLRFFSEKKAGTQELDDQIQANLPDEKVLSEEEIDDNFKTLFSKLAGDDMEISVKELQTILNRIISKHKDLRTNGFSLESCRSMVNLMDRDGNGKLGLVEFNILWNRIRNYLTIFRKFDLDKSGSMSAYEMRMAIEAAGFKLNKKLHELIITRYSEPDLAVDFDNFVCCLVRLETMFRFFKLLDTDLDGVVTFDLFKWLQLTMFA
# T1 sequence (O88456 1-268 partner): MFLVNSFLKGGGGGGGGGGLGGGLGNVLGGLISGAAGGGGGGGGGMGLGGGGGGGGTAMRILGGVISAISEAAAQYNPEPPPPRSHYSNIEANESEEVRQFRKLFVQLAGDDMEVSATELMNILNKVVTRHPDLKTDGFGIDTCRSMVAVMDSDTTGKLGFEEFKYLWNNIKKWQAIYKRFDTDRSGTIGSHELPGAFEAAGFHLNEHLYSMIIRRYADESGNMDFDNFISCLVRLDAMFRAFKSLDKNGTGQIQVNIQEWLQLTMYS
# Test: Calpain inhibition of cTnT-ND production in TRITON X-100 extracted ventricular muscle strips (Western blot densitometry)
# Format: biochemical
# Details: calpain specific inhibitor; TRITON X-100 extracted mouse cardiac muscle strips
# Description: SDS-PAGE and Western blotting. Ventricular muscle tissues or myocytes were homogenized in Laemmli SDS-PAGE sample buffer containing 2% SDS, heated at 80° C. for 5 min, and clarified by centrifugation. Total protein extracts were resolved by 14% Laemmli gel with an acrylamide:bisacrylamide ratio of 180:1 (low cross linker) or by 15% Laemmli gel with an acrylamide:bisacrylamide ratio of 29:1 (high cross linker). The gels were stained with Coomassie Brilliant Blue R250 to reveal the resolved protein bands. Duplicate gels were electrically blotted to nitrocellulose membranes, as described previously (21). After blocking in Tris-buffered saline (TBS) containing 1% bovine serum albumin (BSA), the membrane was incubated with anti-TnT mAbs CT3, 2C8, or polyclonal antibody RATnT. The membranes were then washed with high stringency using TBS containing 0.5% TRITON® X-100 and 0.05% SDS, incubated with alkaline phosphatase-conjugated anti-mouse IgG or anti-rabbit IgG second antibodies (Sigma), washed again, and developed in 5-bromo-4-chloro-3-indolylphosphate/nitro blue tetrazolium substrate solution, as described previously (21).
# TRITON® X-100 extraction of ventricular muscle strips. In an ice container, ventricular muscle was cut with a sharp razor blade into fine pieces approximately the size of isolated trabeculae. The muscle strips were washed in relaxing solution containing […], 2 mM MgCl2, 2 mM EGTA, 10 mM Tris, 0.5 mM DTT, 0.1 mM PMSF and 2 mM Na4P2O7. After centrifugation at 2,800×g at 4° C. for 15 min, the pellet was skinned in relaxing solution plus 0.5% (w/w) TRITON® X-100 at 4° C. with rotation for 10 min. After centrifugation at 14,000×g at 4° C. for 20 min, the pellet was suspended in relaxing solution without TRITON® X-100 and incubated at 37° C. with rotation. Samples were collected at a series of time points for SDS-PAGE and Western blotting to examine the modifications of cTnT and other myofibrillar proteins.
# Calpain inhibition. To test whether endogenous calpain in the cardiac muscle contributes to TnT NH2-terminal modification, several different calpain inhibitors were applied to the TRITON® X-100 extraction procedure. […] TRITON® X-100 treatment of mouse ventricular muscle strips was carried out as above in the presence or absence of 100 μM hydrogen peroxide and the effect on cTnT modification was examined by Western blotting.
# The effects of two cell membrane-permissible nonpeptide calpain inhibitors, PD 150606 and PD 151746 (Calbiochem), were also tested. […] PD 150606 and […] were separately added to the relaxing solution before TRITON® X-100 treatment and incubated with the minced ventricular muscle at 4° C. for 10 minutes to allow the inhibitor to penetrate cell membrane and bind to calpain. After TRITON® X-100 extraction, samples were collected for SDS-PAGE and Western blotting to examine the effect on cTnT modification.
cTnT-ND production decreased to [%],decrease in cTnT-ND72-291 production,Structure (SMILES)
63,approximately 37%,O=C(O)/C(S)=C/c1ccc(I)cc1 [PD150606]
50,approximately 50%,O=C(O)/C(S)=C/c1c[nH]c2ccc(F)cc12 [PD151746]
